Laboratory results as given in patent publication US20250313563A1, “GLYCOGEN SYNTHASE KINASE 3 INHIBITORS AND USES THEREOF” (The Broad Institute, Inc., priority 2022, published 2025).
Where two headings read alike, the source gives them in different places.

Tests used:
[1] = target: GSK3α (GST-full length GSK3α) (Homo sapiens (Human), UniProt P49840); experiment: GSK3α TR-FRET kinase assay; assay type: biochemical
Outline: (§1)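 1 nM GST-GSK3α/β + cpd, 30 min preinc; add 200 nM biotin-pS645 GS(631-650) peptide + ATP (α 4 μM / β 2 μM, or 1 mM); 100 min RT, 50 mM Tris pH 7.5, 20 mM MgCl2, 1% DMSO; EDTA stop; SA-d2/Tb-pSer641 Ab 60 min; 665/615 ratio → IC50.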

[2] = target: GSK3b (GST-full length GSK3b) (Homo sapiens (Human), UniProt P49841); experiment: GSK3b TR-FRET kinase assay; assay type: biochemical
Outline: as §1

[3] = 1 nM GSK3α, 4 μM ATP, 30 minute preincubation, read-out: GSK3-A TR-FRET BIOCHEMICAL (TR-FRET), IC50
[4] = 1 nM GSK3b, 2 μM ATP, 30 minute preincubation, read-out: GSK3-B TR-FRET BIOCHEMICAL (TR-FRET), IC50
[5] = 1 nM GSK3α, 4 μM ATP, 30 minute preincubation, Table 16, read-out: GSK3-A TR-FRET BIOCHEMICAL (TR-FRET)
[6] = 1 nM GSK3b, 2 μM ATP, 30 minute preincubation, Table 16, read-out: GSK3-B TR-FRET BIOCHEMICAL (TR-FRET)
[7] = 1 nM GSK3α, 4 μM ATP, 30 minute preincubation, Table 16, read-out: GSK3-A TR-FRET BIOCHEMICAL (TR-FRET), IC50
[8] = 1 nM GSK3b, 2 μM ATP, 30 minute preincubation, Table 16, read-out: GSK3-B TR-FRET BIOCHEMICAL (TR-FRET), IC50
[9] = 1 nM GSK3α, 4 μM ATP, 30 minute preincubation, geometric mean, read-out: GSK3-A TR-FRET BIOCHEMICAL (TR-FRET), GMean, IC50
[10] = 1 nM GSK3b, 2 μM ATP, 30 minute preincubation, geometric mean, read-out: GSK3-B TR-FRET BIOCHEMICAL (TR-FRET), GMean, IC50
[11] = read-out: GSK3-A (TR-FRET 1 mM ATP), GMean, IC50, 1 mM ATP, geometric mean
[12] = read-out: GSK3-B (TR-FRET 1 mM ATP), GMean, IC50, 1 mM ATP, geometric mean
[13] = GSK3-A (TR-FRET 1 mM ATP), GMean, IC50, 1 mM ATP, geometric mean
[14] = GSK3-B (TR-FRET 1 mM ATP), GMean, IC50, 1 mM ATP, geometric mean

Sequence of GSK3α (GST-full length GSK3α) (P49840 whole entry): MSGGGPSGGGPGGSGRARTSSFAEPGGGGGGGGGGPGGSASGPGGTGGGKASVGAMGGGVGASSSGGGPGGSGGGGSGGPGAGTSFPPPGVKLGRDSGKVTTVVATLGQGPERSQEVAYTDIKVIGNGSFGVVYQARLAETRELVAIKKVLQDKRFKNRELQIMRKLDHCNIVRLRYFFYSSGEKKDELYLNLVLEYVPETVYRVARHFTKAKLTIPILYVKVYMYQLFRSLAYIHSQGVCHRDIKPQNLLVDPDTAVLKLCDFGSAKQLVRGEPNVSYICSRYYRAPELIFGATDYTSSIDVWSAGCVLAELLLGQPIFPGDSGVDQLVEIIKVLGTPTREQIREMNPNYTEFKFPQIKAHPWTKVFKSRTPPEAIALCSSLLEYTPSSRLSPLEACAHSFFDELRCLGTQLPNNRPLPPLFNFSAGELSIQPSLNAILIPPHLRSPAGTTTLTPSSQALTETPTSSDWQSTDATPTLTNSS
Sequence of GSK3b (GST-full length GSK3b) (P49841 whole entry): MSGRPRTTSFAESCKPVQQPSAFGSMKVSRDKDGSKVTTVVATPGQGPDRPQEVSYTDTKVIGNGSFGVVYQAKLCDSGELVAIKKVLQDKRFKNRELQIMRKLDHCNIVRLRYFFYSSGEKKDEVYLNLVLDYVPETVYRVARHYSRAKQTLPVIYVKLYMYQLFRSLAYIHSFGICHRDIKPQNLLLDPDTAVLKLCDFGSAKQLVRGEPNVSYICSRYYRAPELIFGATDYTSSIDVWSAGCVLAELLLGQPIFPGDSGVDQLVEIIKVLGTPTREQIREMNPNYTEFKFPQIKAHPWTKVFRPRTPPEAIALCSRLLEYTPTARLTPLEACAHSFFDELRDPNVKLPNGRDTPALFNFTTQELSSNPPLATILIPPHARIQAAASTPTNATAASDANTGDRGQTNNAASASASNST

CCC1(c2cccc(C(F)(F)F)c2)C2=C(CCNC2=O)Nc2n[nH]cc21 (stereo not shown) [Compound 870263]
IC50 [1, 3]: 100 to 1000 nM
IC50 [2, 4]: > 5000 nM

COc1ccc(C)c(S(=O)(=O)N2CCC3(CC2)C2=C(CC(C)(C)CC2=O)Nc2n[nH]cc23)c1 [Compound 947245]
IC50 [1, 5]: ≤ 100 nM
IC50 [2, 6]: 100 to 1000 nM

CC[C@]1(c2cccc(C(F)(F)F)c2)C2=C(CCN(c3cnn(C)c3)C2=O)Nc2n[nH]cc21 [Compound 949271]
IC50 [1, 7]: 100 to 1000 nM
IC50 [2, 8]: > 5000 nM

CCC1(c2ccc(C)cc2)C2=C(CC(C)(C)CC2=O)Nc2n[nH]cc21 (stereo not shown) [Compound 785739]
IC50 [1, 9]: 100 to 1000 nM
IC50 [2, 10]: > 5000 nM

CC[C@]1(c2cccc(C3CC3)c2)C2=C(CC(C)(C)CC2=O)Nc2n[nH]cc21 [Compound 811557]
IC50 [1, 9]: ≤ 100 nM
IC50 [1, 11]: 100 to 1000 nM
IC50 [2, 10]: ≤ 100 nM
IC50 [2, 12]: 1000 to 5000 nM

CC[C@]1(c2cccc(C(F)(F)F)c2)C2=C(CC(C)(C)NC2=O)Nc2n[nH]c(F)c21 [Compound 957518]
IC50 [1, 7]: ≤ 100 nM
IC50 [2, 8]: 100 to 1000 nM

CCC1(c2cccc(-c3cnc(C)n3C)c2)C2=C(CC(C)(C)CC2=O)Nc2n[nH]cc21 (stereo not shown) [Compound 943531]
IC50 [1, 5]: ≤ 100 nM
IC50 [1, 11]: 100 to 1000 nM
IC50 [2, 6]: 100 to 1000 nM
IC50 [2, 12]: > 5000 nM

CC[C@]1(c2cccc(N(C)C(=O)c3ccn(C)n3)c2)C2=C(CC(C)(C)CC2=O)Nc2n[nH]cc21 [Compound 929442]
IC50 [1, 7]: ≤ 100 nM
IC50 [2, 8]: 100 to 1000 nM

COc1cccc(S(=O)(=O)N2CC[C@]3(C2)C2=C(CC(C)(C)CC2=O)Nc2n[nH]cc23)c1 [Compound 951789]
IC50 [1, 3]: ≤ 100 nM
IC50 [1, 13]: 100 to 1000 nM
IC50 [2, 4]: ≤ 100 nM
IC50 [2, 14]: 100 to 1000 nM

CCC1(c2cccc(-c3cn(C)nc3C)c2)C2=C(Nc3n[nH]cc31)C(F)C(C)(C)CC2=O (single isomer, unassigned) [Compound 947650, 4-(3-(1,3-dimethyl-1H-pyrazol-4-yl)phenyl)-4-ethyl-8-fluoro-7,7-dimethyl-2,4,6,7,8,9-hexahydro-5H-pyrazolo[3,4-b]quinolin-5-one]
IC50 [1, 5]: ≤ 100 nM
IC50 [1, 13]: 100 to 1000 nM
IC50 [2, 6]: ≤ 100 nM
IC50 [2, 14]: > 5000 nM

CC[C@@]1(c2cccc(N(C)c3ncccn3)c2)C2=C(CC(C)(C)C2=O)Nc2n[nH]cc21 [Compound 952212]
IC50 [1, 7]: ≤ 100 nM
IC50 [1, 11]: 100 to 1000 nM
IC50 [2, 8]: 100 to 1000 nM
IC50 [2, 12]: > 5000 nM

CC[C@@]1(c2cccc(-c3cn(C)nc3C)c2)C2=C(CC(C)(C)NC2=O)Nc2n[nH]cc21 [Compound 945480]
IC50 [1, 3]: 1000 to 5000 nM
IC50 [2, 4]: > 5000 nM

CCC1(c2cccc(-c3ccnc4ccc(C)cc34)c2)C2=C(CC(C)(C)NC2=O)Nc2n[nH]cc21 (stereo not shown) [Compound 948651]
IC50 [1, 9]: > 5000 nM
IC50 [2, 10]: > 5000 nM

CCC1(c2cccc(NS(C)(=O)=O)c2)C2=C(CC(C)(C)CC2=O)Nc2n[nH]cc21 (stereo not shown) [Compound 913253]
IC50 [1, 7]: ≤ 100 nM
IC50 [2, 8]: ≤ 100 nM

CC[C@@]1(c2cc(-c3cnn(C)c3)ccc2F)C2=C(CC(C)(C)CC2=O)Nc2n[nH]cc21 [Compound 909220]
IC50 [1, 7]: ≤ 100 nM
IC50 [2, 8]: 100 to 1000 nM

CCC1(c2cccc(N3CCCC3C)c2)C2=C(CC(C)(C)CC2=O)Nc2n[nH]cc21 (stereo not shown) [Compound 885204]
IC50 [1, 7]: ≤ 100 nM
IC50 [2, 8]: 100 to 1000 nM

CCn1nccc1-c1cccc(C2(CC)C3=C(CC(C)(C)CC3=O)Nc3n[nH]cc32)c1 (stereo not shown) [Compound 946090]
IC50 [1, 5]: 100 to 1000 nM
IC50 [2, 6]: > 5000 nM

CCC1(c2cccc(C(F)(F)F)c2)C2=C(Nc3n[nH]cc31)C(C)CNC2=O (stereo not shown) [Compound 945382]
IC50 [1, 3]: ≤ 100 nM
IC50 [2, 4]: 100 to 1000 nM

CC1(C)CC2=C(C(=O)C1F)[C@]1(CC[C@H](C(F)(F)F)CC1)c1c[nH]nc1N2 (stereo partly shown) [Compound 917133]
IC50 [1, 5]: ≤ 100 nM
IC50 [2, 6]: ≤ 100 nM

CC[C@@]1(c2ccccc2)C2=C(C[C@@H](C)CC2=O)Nc2n[nH]cc21 [Compound 789010]
IC50 [1, 9]: 100 to 1000 nM
IC50 [2, 10]: 100 to 1000 nM

CC[C@]1(c2ccccc2)C2=C(CC(C)(C)[C@H](F)C2=O)Nc2n[nH]cc21 [Compound 826767]
IC50 [1, 9]: > 5000 nM
IC50 [2, 10]: > 5000 nM

CC[C@]1(c2cccc(-c3ccnc(OC)c3Cl)c2)C2=C(CC(C)(C)NC2=O)Nc2n[nH]cc21 [Compound 952754]
IC50 [1, 7]: ≤ 100 nM
IC50 [2, 8]: 100 to 1000 nM

CC[C@]1(c2cccc(-c3cnn(CC(=O)N(C)C)c3)c2)C2=C(CC(C)(C)NC2=O)Nc2n[nH]cc21 [Compound 952208]
IC50 [1, 7]: 100 to 1000 nM
IC50 [2, 8]: > 5000 nM

CCC1(c2cccc(C(F)F)c2)C2=C(CC(C)(C)NC2=O)Nc2n[nH]cc21 (stereo not shown) [Compound 947864]
IC50 [1, 9]: ≤ 100 nM
IC50 [2, 10]: 100 to 1000 nM

CC[C@@H]1C[C@@]2(CO1)C1=C(CC(C)(C)CC1=O)Nc1n[nH]cc12 [Compound 913213]
IC50 [1, 5]: 100 to 1000 nM
IC50 [2, 6]: 1000 to 5000 nM

CC[C@]1(c2cccc(N(C)c3cnccn3)c2)C2=C(CC(C)(C)CC2=O)Nc2n[nH]cc21 [Compound 915340]
IC50 [1, 7]: 100 to 1000 nM
IC50 [2, 8]: 1000 to 5000 nM

CCC1(c2cccc(Br)c2)C2=C(CC(C)(C)NC2=O)Nc2n[nH]cc21 (stereo not shown) [Compound 913439]
IC50 [1, 3]: ≤ 100 nM
IC50 [2, 4]: 100 to 1000 nM

CC[C@]1(c2cccc(-c3cnn(-c4ccccc4)c3C(F)(F)F)c2)C2=C(CC(C)(C)NC2=O)Nc2n[nH]cc21 [Compound 951837]
IC50 [1, 7]: 100 to 1000 nM
IC50 [2, 8]: 100 to 1000 nM

CC1(C)CC(=O)C2=C(C1)Nc1n[nH]cc1[C@]21CCN(S(=O)(=O)c2ccccc2F)C1 [Compound 943487]
IC50 [1, 3]: ≤ 100 nM
IC50 [1, 13]: ≤ 100 nM
IC50 [2, 4]: ≤ 100 nM
IC50 [2, 14]: 100 to 1000 nM

CCC1(c2cccc(N3CCCC3C)c2)C2=C(CC(C)(C)CC2=O)Nc2n[nH]cc21 (stereo not shown) [Compound 918321]
IC50 [1, 7]: ≤ 100 nM
IC50 [2, 8]: ≤ 100 nM

CCC1(c2cccc(-c3ccnn3C)c2)C2=C(CC3(CCOC3)NC2=O)Nc2n[nH]cc21 (stereo not shown) [Compound 948014]
IC50 [1, 9]: 100 to 1000 nM
IC50 [2, 10]: > 5000 nM

Cc1cc(S(=O)(=O)N2CCC3(CC2)C2=C(CC(C)(C)CC2=O)Nc2n[nH]cc23)ccc1Cl [Compound 947475]
IC50 [1, 5]: ≤ 100 nM
IC50 [2, 6]: ≤ 100 nM

CCC1(c2cccc(S(=O)(=O)CC)c2)C2=C(CC(C)(C)CC2=O)Nc2n[nH]cc21 (stereo not shown) [Compound 889579]
IC50 [1, 7]: ≤ 100 nM
IC50 [2, 8]: ≤ 100 nM

CC[C@]1(c2cccc(N(C)c3ccnc(F)c3)c2)C2=C(CC(C)(C)CC2=O)Nc2n[nH]cc21 [Compound 929453]
IC50 [1, 7]: 1000 to 5000 nM
IC50 [2, 8]: > 5000 nM

CCC1(c2cccc(N(C)c3cc(C)nc(C)c3)c2)C2=C(CC(C)(C)CC2=O)Nc2n[nH]cc21 (stereo not shown) [Compound 913256]
IC50 [1, 7]: 1000 to 5000 nM
IC50 [2, 8]: > 5000 nM

CCC1(c2cccc(-c3ccncc3F)c2)C2=C(CC(C)(C)CC2=O)Nc2n[nH]c(C)c21 (stereo not shown) [Compound 913017]
IC50 [1, 7]: 100 to 1000 nM
IC50 [2, 8]: 100 to 1000 nM

CCC1(c2cccc(-c3cn(C)nc3C)c2)C2=C(CC(C)(C)NC2=O)Nc2n[nH]c(Cl)c21 (stereo not shown) [Compound 949336]
IC50 [1, 7]: ≤ 100 nM
IC50 [1, 11]: ≤ 100 nM
IC50 [2, 8]: ≤ 100 nM
IC50 [2, 12]: 100 to 1000 nM

CCC1(c2cccc(-c3ccnc(C)c3F)c2)C2=C(CC(C)(C)NC2=O)Nc2n[nH]c(C(F)(F)F)c21 (stereo not shown) [Compound 948297]
IC50 [1, 9]: ≤ 100 nM
IC50 [2, 10]: ≤ 100 nM

CC1(C)CC(=O)C2=C(C1)Nc1n[nH]cc1C21CC2(CCCC2)C1 [Compound 874477]
IC50 [1, 3]: ≤ 100 nM
IC50 [1, 13]: 100 to 1000 nM
IC50 [2, 4]: ≤ 100 nM
IC50 [2, 14]: 1000 to 5000 nM
